In data set [1] the target is T1, cPLA2 (Homo sapiens, UniProt P47712).
T1 sequence (P47712 1-749): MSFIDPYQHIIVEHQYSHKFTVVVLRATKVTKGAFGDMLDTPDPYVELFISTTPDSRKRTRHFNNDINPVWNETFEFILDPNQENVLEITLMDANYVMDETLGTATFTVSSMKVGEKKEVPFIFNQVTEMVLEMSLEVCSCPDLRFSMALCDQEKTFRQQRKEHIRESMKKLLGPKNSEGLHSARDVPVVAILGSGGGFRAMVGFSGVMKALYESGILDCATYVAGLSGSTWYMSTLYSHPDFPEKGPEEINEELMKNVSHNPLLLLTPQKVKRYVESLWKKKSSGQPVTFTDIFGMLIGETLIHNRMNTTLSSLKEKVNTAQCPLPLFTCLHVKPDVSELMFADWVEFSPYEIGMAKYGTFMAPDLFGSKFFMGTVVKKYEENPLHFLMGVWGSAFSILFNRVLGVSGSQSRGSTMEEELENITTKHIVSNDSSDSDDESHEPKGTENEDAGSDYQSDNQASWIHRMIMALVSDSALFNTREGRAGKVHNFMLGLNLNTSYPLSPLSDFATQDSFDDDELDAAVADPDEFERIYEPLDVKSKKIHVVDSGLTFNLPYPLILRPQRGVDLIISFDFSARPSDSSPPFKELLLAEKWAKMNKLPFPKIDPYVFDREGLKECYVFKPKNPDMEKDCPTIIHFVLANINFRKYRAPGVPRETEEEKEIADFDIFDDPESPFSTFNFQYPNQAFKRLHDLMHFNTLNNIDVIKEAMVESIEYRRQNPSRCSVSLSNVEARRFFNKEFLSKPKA
The data set is described as follows: cPLA2 Enzymatic Activity Assay, 14C-PC/DG liposome substrate. Type of data set: biochemical. The method, then: (§1) The substrate, sonicated liposomes containing 1-palmitoyl-2 ^14 C!arachidonoyl-sn-glycerol-3-phosphocholine ( ^14 C!PC, 55 mCi/mmol from NEN Research Products) and sn-1,2-dioleoylglycerol (DG, Avanti Polar Lipids, Birmingham, Ala.) at a molar ratio of 2:1, are prepared as follows. ^14 C!PC (20 nmol, 1×10^6 dpm, 50 uCi/ml in toluene/ethanol) and DG (10 nmol, 100 ug/ml in chloroform) are dried under nitrogen. The lipids are dispersed in 1 ml of 150 mM NaC1, 50 mM Hepes, pH 7.5 (assay buffer) by sonication at 4° C., with Microson probe-sonicator (Heat Systems Ultrasonics) for 4×15 seconds, with 45 second intervals. Bovine serum albumin (essentially fatty acid free, from a 100 mg/ml stock in water, Sigma) is added to a final concentration of 4 mg/ml. Samples to be assayed for cPLA2 activity are incubated with 50 ul liposomes (0.5 nmol ^14 C!PC, 50,000 dpm containing 0.25 nmol of DG) in a total volume of 0.2 ml of assay buffer containing 1 mM CaCl2 and 1 mM 2-ME. Incubations are carried out at 37° C. for 15 minutes and terminated by adding 2 ml of Dole's reagent (2-propanol/heptane/0.5M sulfuric acid, 40:10:1 containing 10 ug/ml of stearic acid). After mixing, 1.2 ml of heptane and 1 ml of water are added. The mixtures are briefly vortexed and the upper phase transferred to tubes containing 2 ml of heptane and 150 mg of Bio-Sil (Bio-Rad Laboratories) activated at 130° C. before use. The tubes are thoroughly vortexed and centrifuged (1000×g for 5 minutes). The supernatants are decanted into scintillation vials. After addition of 10 ml of a liquid scintillation cocktail (Ready Protein+, Beckman) radioactivity is counted using a Beckman liquid scintillation counter Model LS 7000. High radioactive counts correlate with enzymatic activity. The chromogenic cPLA2 enzyme assay used is analogous to Reynolds et al., Analytical Biochemistry, 217, 25-32 (1194).
(§2) (The results are in IC50 μM). (Compound A is a compound of formula II where R6 and R7 are hydrogen, and R5 is phenyl. Compound B is a compound of formula I where R1, R2 and R3 are hydrogen. Compound C is a compound of formula II wherein R6 and R7 are methyl, and R5 is p-methoxyphenyl. Compound D is a compound of formula II wherein R1 and R2 are hydrogen, and R5 is p-hydroxyphenyl.)

Data set [2] in a line: MCII mast cell toxicity assay (XTT). The note with it: mouse, mcii mast cells, 4-12 hours, 37° C., read-out: MCII Mast Cell Toxicity (IC50). In kind it is cell-based.
Excerpt: This toxicity assay is run in parallel with the MCII mast cell LTC4 assay and serves as an indicator of compound effects on the viability and metabolic activity of the MCII cells. This "toxicity" assay is based on the ability of dehydrogenase enzymes present in viable metabolically active cells to bioreduce the tetrazolium salt XTT yielding a colored, water soluble formazan product. (see, Roehm et al.) "An improved colorimetric assay for cell proliferation and viability utilzing the tetrazolium salt XTT. J. Immunol. Methods […] (1991).
A duplicate polystyrene 96-well tissue culture plate (Costar) is set up with sensitized MCII cells, EM95 ascites, media and dilutions of the test compound as described above. The complete media is supplemented with concanavalin A induced culture supernatants from the mouse helper T cell clone D10.G4, as a source of mast cell growth factors.
Wells of the toxicity assay plate are pulsed with 25 μl XTT (Sigma) plus phenazine methosulfate (Aldrich) giving a final concentration of 0.2 mg/ml XTT and 25 μM phenazine methosulfate. The plates are incubated at 37° C. in 10% CO2 for 4-12 hours and then production of the XTT formazan product determined by measuring the optical density of the wells at a wavelength of 450 nm. The positive control on each plate is stimulated MCII cells with dimethyl sulfoxide vehicle alone and the negative control is the same reaction mixture without cells. The background negative control value is subtracted from experimental and positive control values and the data are reported as percent of positive control.
as §2
In general terms: Formazan colour is commonly taken as a measure of viable cells.

Data set [3] deals with T2, 5-lipoxygenase (Homo sapiens, UniProt P09917).
T2 construct: The resultant supernatant containing the cytosolic 5-lipoxygenase activity is stored frozen; from tissue; host or cells: peripheral blood neutrophils, 20,000×g supernatant of sonicate
T2 sequence (P09917 1-674): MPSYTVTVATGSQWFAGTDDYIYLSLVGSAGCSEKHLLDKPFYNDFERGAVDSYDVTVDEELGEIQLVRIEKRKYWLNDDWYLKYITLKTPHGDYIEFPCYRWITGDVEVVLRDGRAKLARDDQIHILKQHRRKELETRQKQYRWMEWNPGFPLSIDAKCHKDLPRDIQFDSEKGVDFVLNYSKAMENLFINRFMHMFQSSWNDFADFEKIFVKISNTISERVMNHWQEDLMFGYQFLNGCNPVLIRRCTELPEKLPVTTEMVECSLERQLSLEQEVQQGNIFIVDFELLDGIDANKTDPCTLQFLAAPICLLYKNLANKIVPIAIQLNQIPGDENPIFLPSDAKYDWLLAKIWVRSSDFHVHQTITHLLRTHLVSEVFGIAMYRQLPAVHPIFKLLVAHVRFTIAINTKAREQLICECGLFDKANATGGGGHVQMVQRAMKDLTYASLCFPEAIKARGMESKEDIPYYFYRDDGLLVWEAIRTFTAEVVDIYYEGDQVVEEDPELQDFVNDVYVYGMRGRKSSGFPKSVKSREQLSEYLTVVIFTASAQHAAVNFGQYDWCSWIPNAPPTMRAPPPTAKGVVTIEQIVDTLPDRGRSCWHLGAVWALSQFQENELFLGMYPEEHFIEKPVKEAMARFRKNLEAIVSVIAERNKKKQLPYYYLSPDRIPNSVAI
The data set is described as follows: 5-Lipoxygenase (5-LPO) Assay: inhibition of leukotriene B4 formation by human neutrophil 20,000×g supernatant. Type of data set: biochemical.
Protocol: To determine the effect of compounds on 5-lipoxygenase activity, peripheral blood neutrophils are separated by density centrifugation as described (Marder et al., Prostaglandins Leukot. and Essent. Fatty Acids 46, 265-270, 1992) and the cytosolic 5-lipoxygenase is prepared from isolated neutrophils according to a modification of Carter et al., (J. Pharmacolo Exp. Thero 256, 929-937 (1991)). Briefly, neutrophils are washed twice in buffer (in millimolar: PIPES, 10; BES, 10; and EDTA, 1; pH 6.8) and diluted to 2.5×10^7 cells/ml. Cells are disrupted with sonication and the cytosolic fraction obtained by centrifugation at 20,000×g for 20 min. at 4° C. The resultant supernatant containing the cytosolic 5-lipoxygenase activity is stored frozen at -70° C. prior to use. Compounds are evaluated for 5-lipoxygenase inhibitory activity. Varying concentration of compounds in 200 ml aliquots containing 50 ml of human 20,000×g supernatant in assay buffer (in millimolar: PIPES, 10; BES, 10; EDTA, 1; NaCl, 100; ATP, 1.56; and CaCl2, 2.5; pH 6.8) containing 3.0 mM AA are used. The reaction proceeds for 5 minutes at 37° C. and is terminated upon the addition of 50 ml EDTA (250 mM). The percent inhibition of leukotriene B4 is determined for each concentration of test compound as compared to vehicle (containing no compound) control. The concentration representing 50% inhibition (IC50) is determined by standard mathematical techniques. Leukotriene B4 is determined by EIA. EIA reagents were purchased from Caymen Chemical Co. (Ann Arbor, Mich.) and used according to the assay procedures as outlined therein.

Data set [4] has as its system thromboxane B2 (TxB2) production, human plasma-depleted blood. The data set is described as follows: Inhibition of TxB2 production by plasma-depleted blood. Particulars: read-out: Plasma DPLTD Blood TxB2 (IC50). Type of data set: cell-based. The method, then:
Compounds are evaluated for their ability to inhibit production of leukotriene B4 (LTB4) and thromboxane B2 (TxB2) upon stimulation of human plasma-depleted blood with formyl-methionyl-leucyl-phenylalanine (FMLP) and thrombin. LTB4 is produced by neutrophils and TxB2 by platelets stimulated at their respective receptors with FMLP and thrombin. The assay is carried out in 1 ml deep well polypropylene 96-well plates (Beckman). For the tests ten ml of blood is collected in EDTA at a final concentration of 1.5 mg/ml. Then, 40 ml glucose phosphate buffer containing 0.1% gelatin is added and the suspension centrifuged at 900 g for 10 minutes at room temperature. The supernatant is discarded and the cells washed once with 50 ml buffer before resuspending them in 50 ml Krebs-Ringers-Henseleit Buffer containing 0.1% gelatin, 1 mM CaCl2, 1.1 mM MgCl2 (KRH buffer). Working solutions of test compounds are made by dissolving the material in DMSO at 10 mM and diluting with appropriate amounts of KRH buffer. An agonist solution is made containing 1 μM FMLP (sigma) and 10 units/ml of thrombin in KRH buffer (Enzyme Research Labs). […] The amount of LTB4 and TxB2 produced is determined by the use of a competitive enzyme immunoassay using commercial reagents from Cayman Chemical. […]

The target in data set [5] is T1, cPLA2. As to the kind of experiment: cPLA2 enzyme assay, chromogenic. Type of data set: biochemical. As for the experimental part: as §1, with “The mixtures are briefly vortexed and the upper phase transferred to tubes containing 2 ml of heptane and 150 mg of Bio-Sil (Bio-Rad Laboratories) activated at 130° C. before use. The tubes are thoroughly vortexed and centrifuged (1000×g for 5 minutes). The supernatants are decanted into scintillation vials.” left out, “High radioactive counts correlate with enzymatic activity. The chromogenic cPLA2 enzyme assay used is analogous to Reynolds et al., Analytical Biochemistry, 217, 25-32 (1194).” left out

Here are results for 6 compounds from patent publication US5514704A, “Benzothiophenes to inhibit leukotrienes” (Eli Lilly and Company, priority 1995, dated 1996).

Structures are written as SMILES.

For the compound `O=C(c1ccccc1)c1c(-c2ccc(O)cc2)sc2cc(O)ccc12` [Compound A], the IC50 in data set [1] (14C-PC/DG liposomes, 37° C., 15 min, pH 7.5, read-out: C-PLA2 Enzyme, C14PC/DA6 (IC50)) was 7.3 ± 0.5 µM. Moreover, the CC50 in data set [2] came to 0.3 µM.
With `Oc1ccc(-c2cc3ccc(O)cc3s2)cc1` [Compound B], the results for the IC50 in data set [3] and in data set [1] were 0.2 ± 0.007 µM and 7 ± 0.8 µM, respectively. Besides, in data set [2], the CC50 is less than 10 µM.
In the case of `O=C(c1ccc(O)cc1)c1c(-c2ccc(O)cc2)sc2cc(O)ccc12` [Compound D], the IC50 in data set [4] was more than 9.8 µM.
For `O=C(c1ccc(-c2ccccc2)cc1)c1c(-c2ccc(O)cc2)sc2cc(O)ccc12` [Example 1, 6-hydroxyphenyl-2-(p-hydroxyphenyl)-(benzo(B)thien-3-yl)(p-phenyl)phenyl methanone], the IC50 in data set [1] is less than 1.2 µM; in data set [5], 146 µM. The CC50 in data set [2] was more than 10 µM.
In the case of `O=C(c1cccc2ccccc12)c1c(-c2ccc(O)cc2)sc2cc(O)ccc12` [Example 2, 6-hydroxyphenyl-2-(p-hydroxyphenyl)-(benzo(B)thien-3-yl)(α-napthyl)methanone], the IC50 came out at 1.7 ± 0.9 µM in data set [3] and 4.8 ± 1.6 µM in data set [1]. In addition, the CC50 in data set [2] is more than 10 µM.
Turning to `O=C(c1ccc2ccccc2c1)c1c(-c2ccc(O)cc2)sc2cc(O)ccc12` [Example 3, 6-hydroxyphenyl-2-(p-hydroxyphenyl)-(benzo(B)thien-3-yl)(β-napthyl)methanone], the IC50 in data set [3] is 1 ± 0.5 µM; in data set [1], 2.3 ± 0.6 µM; in data set [5] it was 122 µM. In data set [2], the CC50 is more than 10 µM.
